Measurements published in patent US20250101052A1, “COMPOUND FOR EGFR KINASE INHIBITOR, COMPOSITION, AND USE THEREOF” (INNOVATION INSTITUTE FOR ARTIFICIAL INTELLIGENCE IN …, priority 2021, published 2025).

What was measured:
[1] = molecular target: Aurora B (Homo sapiens (Human), UniProt Q96GD4); assay: Activity of other kinases: Aurora B (HTRF); assay type: biochemical
Protocol: Embodiment 5 Activity of Other Kinases
(1) Preparation of 1×kinase reaction buffer:
1 time the volume of 5×kinase reaction buffer and 4 times the volume of water; 5 mM MgCl2; 1 mM DTT.
(2) Screening of Compounds:
a) The compound was diluted with DMSO in a dilution plate.
b) The compound was diluted 40 times into the 1× kinase reaction buffer and oscillated on an oscillator for 20 minutes.
c) 2× was prepared using a 1× enzyme reaction buffer.
d) 2 μL of kinase was added to each well of the reaction plate.
e) 1 μL of the compound diluted in the buffer was added to each well, and the plate was sealed with a sealing film, centrifuged at 1000 rpm for 60 seconds and incubated at 25° C. for 10 minutes.
f) A mixture of 2.5×S2 &TK-substrate-biotin and ATP was prepared using the 1× enzyme reaction buffer, and 2 μL of the S2 &TK-substrate-biotin/ATP mixture was added to the reaction plate.
G) The plate was sealed with a sealing film, centrifuged at 1000 rpm for 60 seconds and incubated at 25° C. for 50&40&30&20 minutes.
h) 4× Sa-XL 665 was prepared using an HTRF detection buffer.
i) 5 μL of Sa-XL 665 and 5 μL of STK/TK-antibody-Cryptate were added to each well, centrifugation was conducted at 1000 rpm for 60 seconds, and incubation was conducted at 25° C. for 1 hour.
j) The fluorescence signals at 615 nm (Cryptate) and 665 nm (XL665) were read using the BGM microplate reader.

[2] = Stability testing of liver microsomes, mouse; assay type: in vitro ADME; conditions: for CLint scaled at 1 µM / half-life at 1 µM: pH 7.41, mouse liver microsomes
Protocol: 1. 100 mM K-buffer was preheated with 5 mM MgCl2 with a pH value of 7.41.
2. Preparation of testing solution
0.5 mM solution A: 5 μL of the 10 mM compound stock solution was added for reference to 95 μL of ACN.
1.5 μM microsome solution (0.75 mg/mL): 1.5 μL of a 500 μM solution and 18.75 μL of 20 mg/mL liver microsomes were added to 479.75 μL of K/Mg-buffer.
3. The K/Mg-buffer NADPH solution (6 mM, 5 mg/mL) was prepared.
4. […] of human, monkey, and mouse liver microsomes with a 0.75 mg/mL concentration were added to detection plates at different time points (0, 15, 30, 45, and 60 minutes).
5. Pre-incubation was conducted at 37° C. for 5 minutes.
6. At 0 min, before 15 μL of the NADPH stock solution (6 mM) was added, 150 μL of ACN containing IS was added.
NADPH was dissolved in the K/mg buffer to prepare a 6 mm and 5 mg/mL NADPH stock solution.
7. At other time points, 15 μL of the NADPH stock solution (6 mM) was added to the well for starting the reaction and timing.
8. 150 μL of ACN containing IS was added to the corresponding plate wells at 15 min, 30 min, 45 min, and 60 min, respectively, and the reaction was stopped.
9. After quenching, shaking well was conducted for 10 minutes (600 rpm), and centrifugation was conducted at 6000 rpm for 15 minutes.
10. 80 μL of the supernatant in each well was transferred to a 96-well sample plate (containing 140 μL of pure water) for LC/MS analysis.

[3] = system: Ba/F3-EGFR^L858R/T790M/C797S nude mouse transplantation tumors; assay: In-vivo efficacy in Ba/F3-EGFR^L858R/T790M/C797S xenograft (CDX); set-up: species or system BALB/c nude mice; conditions: 13 days
Protocol: In-vivo efficacy: The compounds of the present invention have excellent in-vivo anti-tumor efficacy and are dose-dependent
In-vivo efficacy experiments were conducted on BALB/c nude mice subcutaneously implanted with Ba/F3-EGFR^L858R/T790M/C797S derived xenograft (CDX). BALB/c nude mice, female, 6-8 weeks old, weighing approximately 18-22 grams, were raised in an SPF-level environment with separate ventilation for each cage (5 mice per cage). All cages, beddings, and water were disinfected before use. All the animals were free to access standard certified commercial laboratory diets. A total of 48 mice were purchased from Beijing Vital River for research. Each mouse was subcutaneously implanted with […] in the right axilla for tumor growth. The experiment began when the average tumor volume reached about 70 cubic millimeters. The experimental compounds were for oral administration daily, with compound 24 (45 mg/kg, 75 mg/kg respectively) and compound 51 (100 mg/kg) administered continuously for 13 days.

Sequence of Aurora B (Q96GD4 whole entry): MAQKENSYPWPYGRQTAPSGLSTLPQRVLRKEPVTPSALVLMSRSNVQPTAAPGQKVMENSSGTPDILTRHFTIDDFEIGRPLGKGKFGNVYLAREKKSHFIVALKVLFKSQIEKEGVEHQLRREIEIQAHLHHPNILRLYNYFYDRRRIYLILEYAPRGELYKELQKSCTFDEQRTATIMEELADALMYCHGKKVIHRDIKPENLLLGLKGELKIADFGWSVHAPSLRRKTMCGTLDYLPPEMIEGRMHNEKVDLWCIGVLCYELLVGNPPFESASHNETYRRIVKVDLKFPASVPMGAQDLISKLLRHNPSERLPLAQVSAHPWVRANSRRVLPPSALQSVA

Row | SMILES | IC50 [1] | CLint scaled at 1 µM [2] | half-life at 1 µM [2] | TGI % ([3]; 45 mg/kg/day oral) | TGI % ([3]; 75 mg/kg/day oral) | stability in liver microsomes (in words) ([2]; mice) | TGI % ([3]; 100 mg/kg/day oral)
1 | CCc1cc(Nc2ncc(Cl)c(Nc3ccc(C)c(C)c3P(C)(C)=O)n2)c(OC)cc1N1CCC(N2CCN(C)CC2)CC1 [Comparative Compound A, reference compound] | 2010 nM | 18.2 mL/min/kg | 1.27 h | – | – | – | –
2 | CCc1cc(Nc2ncc(Cl)c(Nc3ccc(C)c(C)c3P(C)(C)=O)n2)c(OC)cc1N1CC2(CCN(C)CC2)C1 [Compound 24, (6-((5-Chloro-2-((5-ethyl-2-methoxy-4-(7-methyl-2,7-diazaspiro[3.5]non-2-yl)phenyl)amino)pyrimidin-4-yl)amino)-2,3-dimethylphenyl)dimethylphosphine oxide] | 410 nM | < 9.6 mL/min/kg | > 2.42 h | 84.74% | 99.06% | good stability | –
3 | CCc1cc(Nc2ncc(Cl)c(Nc3ccc(C)c(C)c3P(C)(C)=O)n2)c(OC)cc1N1CCC(N2C[C@H]3CC[C@@H](C2)N3C)CC1 [Compound 51, (6-((5-chloro-2-((5-ethyl-2-methoxy-4-(4-((1R,5S)-8-methyl-3,8-diazabicyclo[3.2.1]octan-3-yl)piperidin-1-yl)phenyl)amino)pyrimidin-4-yl)amino)-2,3-dimethylphenyl)dimethylphosphine oxide] | – | – | – | – | – | – | 83.07%
